Literature values, collected in patent US20080269347A1, “EPINEPHRINE FORMULATIONS” (Azopharma, Inc., priority 2006, published 2008).
Where a name gives a salt, the structure may show the parent alone. Read-outs that look alike come from different tables or passages of the source.

pH at which unstable (in dextrose (5% in water)): above 5.5
decomposition (pH 2.5, in 200 days at 30° C.): 5%
decomposition (pH 4.5, in 200 days at 30° C.): 10%
Structure (SMILES): CNC[C@H](O)c1ccc(O)c(O)c1 [Epinephrine hydrochloride]
stability when mixed with lidocaine hydrochloride (intravenous admixture, pH raised above 5.5 to about 6): begin to deteriorate within several hours
